This is an account of results in patent US7687465B2, “Therapeutic cancer vaccine” (Kraeftens Bekaempelse, priority 2003, dated 2010).

The target in one experiment is T1, HLA-A2 (Homo sapiens, UniProt P04439, D140Y/D185E/D98H/E176V/E277Q/G131W/G231S/I119V/I121R/I166T/I218V/L300P/L318F/N151K/N90K/P208A/P217A/Q86G/Q94H/R138H/R169H/T345S).
T1 construct: stabilization of the class 1 molecule after loading of peptide to the peptide transporter deficient cell line T2; endogenous in cells; host or cells: T2 (TAP-deficient human cell line), metabolically labelled with [35S]-methionine and lysed
Kind of experiment: Assembly assay for peptide binding to class I MHC molecules. The conditions noted are these: concentration of the peptide required for half maximal binding to HLA-A2; for EC50: read-out: C50. Here is the method: Assembly assays for binding of the synthetic peptides to class I MHC molecules metabolically labeled with [^35S]-methionine can be carried out as described below. It will be appreciated by the person skilled in the art that the protocol may be adopted for any peptide and any class I MHC molecule.
Briefly, TAP deficient cells were metabolically labeled with [^35S]-methionine (Amersham, Freiburg, Germany). The cells were lyzed in 0.5 ml lysis buffer (150 mM NaCl, 50 mM TrisHCl, 0.5% NP-40 (Fluka, Buchs, Switzerland), 5 mM EDTA, pH 7.5) with 0.5% Mega-9 (Sigma, St. Louis, USA) in the presence of protease inhibitors (2 mM PMSF, 5 mM iodoacetamide, 2 μg/ml pepstatin, 2 μg/ml leupeptin) with or without synthetic peptide (for a list of positive control peptides, see Table 2).
After 20 min of incubation, the cell nuclei were removed by centrifugation (5 min, 10,000 g) and 50 μl (10% v/v) freshly washed Staphylococcus aureus organisms (Pansorbin, Calbiochem, Nottingham, UK). The next day Pansorbin was removed by centrifugation (12 min, 16,000 g) and the appropriate monoclonal antibody was added at a final concentration of 10 μg/ml, incubated for 90 min, followed by addition of protein A-Sepharose (75 μl, 10% v/v) and incubation for 1 h. The beads were washed 4 times and stored at −20° C. until analysis by electrophoresis.
In the case of an assembly assay with the HLA class I-specific conformation-dependent monoclonal antibody W6/32, samples were eluted in reducing buffer (9.5 M urea, 2% NP-40, 5% 2-mercaptoethanol, 2% Ampholines, pH range 3.5-9.5 (Pharmacia Biotech, Uppsala, Sweden)) and focused for 16 h at 880 V on 5.5% polyacrylamide isoelectric focusing (IEF) gels^20,39.
Samples from assembly assays with allele-specific antibodies were eluted by boiling (5 min) in SDS reducing buffer (50 mM TrisHCl pH 6.8, 2% SDS, 5% 2-mercaptoethanol, 10% glycerol, 2.5% bromophenol blue) and electrophorezed on 12% SDS-PAGE gels (1 h at 200 V). All gels were fixed in 10% acetic acid with 5% methanol and dried onto 3 MM paper (Whatman, Maidstone, UK). MHC heavy chain bands were quantified using the Imagequant Phosphorimager program (Molecular Dynamics, Sunnyvale, Calif., USA). The intensity of the band is directly related to the amount of peptide-bound class I MHC complex recovered during the assay. C50 value (μM) as the concentration of the peptide required for half maximal binding to MHC may thus be determined. The binding affinities of the analysed peptides are determined according to their efficiency of stabilising the HLA class I molecules. The binding affinity is represented as the peptide concentration required to reach half-maximal stabilistation of appropriate HLA-molecule.
Assembly assays for binding of the synthetic peptides to class I MHC molecules metabolically labeled with [^35S]-methionine were carried out as described^15,16. The assembly assay is based on stabilization of the class 1 molecule after loading of peptide to the peptide transporter deficient cell line T2. Subsequently correctly folded stable MHC heavy chains are immunoprecipitated using conformation-dependent antibodies. After IEF electrophoresis, gels were exposed to phosphorImager screens, and peptide binding was quantitated using the Imagequant PhosphorImager program (Molecular Dynamics, Sunnyvale, Calif.).

In experiment [1] the test system is peripheral blood T cells or TIL from melanoma patients. Nature of the experiment: ELISPOT IFN-γ secretion assay, T-cell responses against HLA-A2 binding ML-IAP peptides. It counts as cell-based, human. The conditions noted are these: for strength of spontaneous CTL response: TIL and PBL from melanoma patients, in words; for TIL samples in which a response against the peptide was detected: TIL from melanoma patients (n=22); for TIL samples in which a response against the peptide was detected / PBL samples in which a response against the peptide was detected: stimulated once in vitro with peptide, number of samples; for PBL samples in which a response against the peptide was detected: peripheral blood T cells from melanoma patients (n=7). The protocol: Peripheral blood was obtained from melanoma patients before vaccination and subsequent to a series of vaccinations. In order to identify peptide-specific T-cell precursors, peripheral blood lymphocytes (PBL) were used directly in the ELISPOT (designated direct ELISPOT). However, to extend the sensitivity of the ELISPOT assay, PBL were stimulated once in vitro prior to analysis^17,18. At day 0, PBL or crushed lymph nodes were thawed and plated in 2 ml/well at a concentration of 2×10^6 cells in 24-well plates (Nunc, Denmark) in X-vivo medium (Bio Whittaker, Walkersville, Md.), 5% heat-inactivated human serum, and 2 mM of L-glutamine in the presence of 10 μM of peptide. Two days later 20 IU/ml recombinant interleukin-2 (IL-2) (Chiron, Ratingen, Germany) was added to the cultures. The cultured cells were tested for reactivity in the ELISPOT on day 8.
The ELISPOT assay used to quantify peptide epitope specific interferon-7 releasing effector cells was adapted from Lalvani et al.^37, and Scheibenbogen et al.^38. Briefly, nitrocellulose bottomed 96-well plates (MultiScreen MAIP N45, Millipore) were coated overnight at 4° C. with 7.5 μg/ml of anti-IFN-γ antibody (1-D1K, Mabtech, Sweden) in 75 μl sterile PBS. Subsequently, the wells were washed six times with PBS, and non-specific binding were blocked by X-vivo medium for 2 hours at 37° C. Freshly isolated PBL or cells, which had been stimulated once in vitro, were added in duplicates at different cell concentrations (from 10^6 to 10^5 cells per well for non-stimulated PBL, and from 3×10^5-3×10^4 cells per well for PBL which had been stimulated once in vitro), in 100 μl X-vivo medium. Peptides were then added to each well to a final concentration of 2 μM and incubated overnight at 37° C.
The following day, media was discarded and the wells were washed (six times) with PBS containing 0.05% Tween (PBS/Tw) before the addition of biotinylated secondary antibody (7-B6-1-Biotin, Mabtech) at 0.5 μg/ml in 75 μl PBS containing 1% BSA and 0.02% NaN3 (PBS/BSA). The plates were incubated at room temperature for 2 hours. The wells were washed (six times) with PBS/Tw. Then 75 μl of Avidin-enzyme conjugate (AP-Avidin, Calbiochem) diluted 1:2000 in PBS/BSA were added to each well and incubated for 1 hour. The enzyme substrate NBT/BCIP was prepared freshly according to the manufacturers' instructions (Gibco, code 18280-016) and 75 μl were added to each well and incubated for 5-10 min. The reaction was terminated by washing with tap-water upon the emergence of dark purple spots. The spots were then counted using the AlphaImager System (Alpha Innotech, San Leandro, Calif., USA) and the peptide specific CTL frequency could be calculated as the number of spot-forming cells.
To extend the sensitivity of the ELISPOT assay, PBL were stimulated once in vitro prior to analysis^17,18. At day 0, PBL or crushed lymph nodes were thawed and plated in 2 ml/well at a concentration of 2×10^6 cells in 24-well plates (Nunc, Denmark) in X-vivo medium (Bio Whittaker, Walkersville, Md.), 5% heat-inactivated human serum, and 2 mM of L-glutamine in the presence of 10 μM of peptide. Two days later 20 IU/ml recombinant interleukin-2 (IL-2) (Chiron, Ratingen, Germany) was added to the cultures. The cultured cells were tested for reactivity in the ELISPOT on day 12.
The ELISPOT assay used to quantify peptide epitope-specific interferon-γ-releasing effector cells was performed as described previously^19. Briefly, nitrocellulose bottomed 96-well plates (MultiScreen MAIP N45, Millipore, Hedehusene, Denmark) were coated with anti-IFN-7 antibody (1-D1K, Mabtech, Nacka, Sweden). The wells were washed, blocked by X-vivo medium, and cells were added in duplicates at different cell concentrations. Peptides were then added to each well and the plates were incubated overnight. The following day, media was discarded and the wells were washed prior to addition of biotinylated secondary antibody (7-B6-1-Biotin, Mabtech). […]

Ends that are not written are not given here.

As for `CC(C)C[C@H](NC(=O)CNC(=O)[C@H](CC(C)C)NC(=O)[C@@H](NC(=O)[C@@H]1CCCN1C(=O)[C@H](CO)NC(=O)CNC(=O)[C@H](CC(C)C)NC(=O)[C@@H](N)CO)C(C)C)C(=O)O` [ML-IAP34], the EC50 at HLA-A2 came out at 1 µM. With `CC[C@H](C)[C@H](NC(=O)[C@@H](N)CCC(N)=O)C(=O)N[C@@H](CC(C)C)C(=O)NCC(=O)N[C@@H](CCC(N)=O)C(=O)N[C@@H](CC(C)C)C(=O)N[C@@H](CCCNC(=N)N)C(=O)N1CCC[C@H]1C(=O)N[C@@H](CC(C)C)C(=O)O` [ML-IAP54], the EC50 at HLA-A2 amounted to 1 µM. Consider `CSCC[C@H](NC(=O)CN)C(=O)NCC(=O)N[C@@H](CO)C(=O)N[C@@H](CCC(=O)O)C(=O)N[C@@H](CCC(=O)O)C(=O)N[C@@H](CC(C)C)C(=O)N[C@@H](CCCNC(=N)N)C(=O)N[C@@H](CC(C)C)C(=O)O` [ML-IAP83], for which the EC50 on HLA-A2 is 30 µM. Consider `CC(C)C[C@H](NC(=O)[C@@H]1CCCN1C(=O)[C@H](Cc1c[nH]c2ccccc12)NC(=O)[C@H](CC(=O)O)NC(=O)[C@H](Cc1ccc(O)cc1)NC(=O)[C@H](Cc1ccccc1)NC(=O)[C@H](CO)NC(=O)[C@H](C)NC(=O)[C@H](CC(C)C)NC(=O)[C@@H](N)CCCNC(=N)N)C(=O)O` [ML-IAP90], for which the EC50 at HLA-A2 came out at 0.2 µM. Also, in experiment [1], the “strength of spontaneous CTL response” value is reported as “Weaker spontaneous responses”, the “TIL samples in which a response against the peptide was detected” value is “seven” and the “PBL samples in which a response against the peptide was detected” value is reported as “two”. On to `CC(C)C[C@H](NC(=O)[C@H](CCC(=O)O)NC(=O)[C@@H]1CCCN1C(=O)[C@@H]1CCCN1C(=O)[C@@H](NC(=O)[C@H](CCC(=O)O)NC(=O)[C@H](C)NC(=O)[C@@H](NC(=O)[C@H](CC(C)C)NC(=O)[C@@H]1CCCN1)[C@@H](C)O)C(C)C)C(=O)O` [ML-IAP98], for which the EC50 on HLA-A2 is more than 100 µM. In the case of `CC(C)C[C@H](NC(=O)[C@H](CCC(=O)O)NC(=O)[C@@H]1CCCN1C(=O)[C@@H]1CCCN1C(=O)[C@@H](NC(=O)[C@H](CCC(=O)O)NC(=O)[C@H](C)NC(=O)[C@@H](NC(=O)[C@@H](N)CC(C)C)[C@@H](C)O)C(C)C)C(=O)O` [ML-IAP99], the EC50 on HLA-A2 worked out at 0.9 µM. `CC(C)C[C@H](NC(=O)[C@@H](N)CC(C)C)C(=O)N[C@@H](CCCNC(=N)N)C(=O)N[C@@H](CO)C(=O)N[C@@H](CCCCN)C(=O)NCC(=O)N[C@@H](CCCNC(=N)N)C(=O)N[C@@H](CC(=O)O)C(=O)N[C@@H](Cc1ccccc1)C(=O)N[C@H](C(=O)O)C(C)C` [ML-IAP154]: the EC50 at HLA-A2 was 10 µM. On to `CC(C)C[C@H](NC(=O)[C@@H](N)C(C)C)C(=O)N[C@@H](CCC(=O)O)C(=O)N1CCC[C@H]1C(=O)N1CCC[C@H]1C(=O)NCC(=O)N[C@@H](C)C(=O)N[C@@H](CCCNC(=N)N)C(=O)N[C@@H](CC(=O)O)C(=O)N[C@H](C(=O)O)C(C)C` [ML-IAP230], for which, on HLA-A2, the “C50 (μM)” value is reported as “not able to stabilize the HLA-A2 molecule” and the EC50 is more than 100 µM. Further, in experiment [1], the “strength of spontaneous CTL response” value is “Weaker spontaneous responses”, the “TIL samples in which a response against the peptide was detected” value was “six” and the “PBL samples in which a response against the peptide was detected” value is listed as “two”. As to `CC[C@H](C)[C@H](NC(=O)[C@@H]1CCCN1C(=O)[C@H](CS)NC(=O)[C@H](CC(C)C)NC(=O)[C@@H](N)CCC(N)=O)C(=O)N[C@@H](CS)C(=O)N[C@@H](CCCNC(=N)N)C(=O)N[C@@H](C)C(=O)N1CCC[C@H]1C(=O)N[C@H](C(=O)O)C(C)C` [ML-IAP280], the EC50 at HLA-A2 turned out to be 20 µM. For ELPTPRREV [ML-IAP200], at HLA-A2 (listed as MLIAP200), the “C50 (μM)” value is reported as “did not bind”. As to SIVFVPCG [ML-IAP261], the “C50 (μM)” value at HLA-A2 (listed as MLIAP261) was “did not bind”.
